Source: US6949566B2, “Thiazole and oxazole derivatives” (Shionogi & Co. Ltd., priority 2000, dated 2005)

Columns and labels:
[1] = target: T1, MMP-8 (Homo sapiens, UniProt P22894); assay: Assay for inhibitory activities on MMPs (fluorogenic peptide substrate), MMP-8; format: biochemical; conditions: catalytic domain 99Phe-262Gly; substrate MOCAc-Pro-Leu-Gly-Leu-A2Pr(DNP)-Ala-Arg-NH2
T1 construct: catalytic domain (^99Phe˜^262Gly) was amplified with PCR; His-tag; enterokinase digestion-site; made in house; host or cells: Escherichia coli
From the text: In regard to MMP-8, catalytic domain (^99Phe˜^262Gly) was amplified with PCR using commercial available Human Bone Marrow cDNA. This was cloned in Escherichia. coli expression vector pTrc99AHE inserted with His-tag sequence and enterokinase digestion-site, induced and expressed by IPTG (Isopropyl-β-D-thiogalactopyranoside) and expressed in a insoluble fraction (Thau F. Ho, M. Walid Qoronfleh, Robert C. Wahl, Trica A. Pulvino, Karen J. Vavra, Joe Falvo, Tracey M. Banks, Patricia G. Brake and Richard B. Ciccarelli: Gene expression, purification and characterization of recombinant human neutrophil collagenase. Gene 146, (1994) 297-301, Prepared by the a improved method of this material). Isolation of MMP-8 from an insoluble fraction was carried out by dissolving in modifier (6M urea) by a usual method and purification with metal chelate chromatography. And then removing modifier (6M urea) with dialysis and refolding of the enzyme spontaneously gave activated MMP-8.
(§1) The enzymatic activity on MMPs was analyzed by the method described in “C. Graham Knight, Frances Willenbrock and Gillian Murphy: A novel coumarin-labelled peptide for sensitive continuous assays of the matrix metalloproteinases: FEBS LETT., 296, (1992), 263-266”. The substrate MOCAc-Pro-Leu-Gly-Leu-A2Pr(DNP)-Ala-Arg-NH2 was purchased from Peptide Institute, Inc., Osaka, Japan. The measurement of the inhibitory activities (IC50) was carried out by the following four methods;
(§2) (A) Reaction with substrate, enzyme (MMPs) and inhibitor
(§3) (B) Reaction with substrate and inhibitor, without enzyme
(§4) (C) Reaction with substrate and enzyme (MMPs), without inhibitor
(§5) (D) Reaction with substrate only
(§6) IC50 values were calculated by using the following formula and each fluorescence values of above four methods (A to D). % inhibition={1−(A−B)/(C−D)}×100 IC50 means the concentration required to inhibit 50% of the enzyme activity.

[2] = target: T2, MMP-2 (Homo sapiens, UniProt P08253); assay: Assay for inhibitory activities on MMPs (fluorogenic peptide substrate), MMP-2; format: biochemical; conditions: purchased MMP-2; substrate MOCAc-Pro-Leu-Gly-Leu-A2Pr(DNP)-Ala-Arg-NH2
T2 construct: purchased Calbiochem-Novabiochem International, Inc
T2 sequence (P08253 110-660): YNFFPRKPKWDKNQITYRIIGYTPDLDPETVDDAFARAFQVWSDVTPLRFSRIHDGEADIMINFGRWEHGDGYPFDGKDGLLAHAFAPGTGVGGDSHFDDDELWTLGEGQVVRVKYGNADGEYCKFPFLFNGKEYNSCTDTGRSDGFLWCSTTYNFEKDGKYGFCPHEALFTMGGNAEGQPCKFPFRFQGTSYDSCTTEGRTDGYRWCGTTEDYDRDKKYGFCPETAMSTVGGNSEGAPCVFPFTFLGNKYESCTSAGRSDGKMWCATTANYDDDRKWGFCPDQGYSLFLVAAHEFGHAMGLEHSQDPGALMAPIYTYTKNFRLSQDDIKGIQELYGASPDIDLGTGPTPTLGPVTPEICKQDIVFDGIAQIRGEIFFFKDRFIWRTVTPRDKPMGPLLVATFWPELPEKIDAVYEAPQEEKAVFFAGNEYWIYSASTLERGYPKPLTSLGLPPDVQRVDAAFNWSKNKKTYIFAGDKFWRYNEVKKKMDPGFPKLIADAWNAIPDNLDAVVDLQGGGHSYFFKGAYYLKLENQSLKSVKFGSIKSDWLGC
Protocol: MMP-2 was purchased from Calbiochem-Novabiochem International, Inc.
as §1, §2, §3, §4, §5, §6

[3] = target: T3, MMP-13 (Homo sapiens, UniProt P45452); assay: Assay for inhibitory activities on MMPs (fluorogenic peptide substrate), MMP-13; format: biochemical; conditions: catalytic domain 104Tyr-267Gly; substrate MOCAc-Pro-Leu-Gly-Leu-A2Pr(DNP)-Ala-Arg-NH2
T3 construct: catalytic domain (^104Tyr˜^267Gly) was amplified with RT-PCR; His-tag; enterokinase digestion-site; made in house; host or cells: Escherichia coli
Protocol: (§7) In regard to MMP-13, mRNA was prepared from carcinoma cell SW1353 derived from human cartilage stimulate by IL-1, TNF and catalytic domain (^104Tyr˜^267Gly) was amplified with RT-PCR. This was cloned in Escherichia. coli expression vector pTrc99AHE inserted with His-tag sequence and enterokinase digestion-site, induced and expressed by IPTG (Isopropyl-β-D-thiogalactopyranoside) and expressed in a insoluble fraction. Isolation of MMP-13 from an insoluble fraction was carried out by dissolving in modifier (6M urea) by a usual method and purification with metal chelate chromatography (Ni Chelateing Sepharose). And then removing modifier (6M urea) with dialyze and refolding of the enzyme spontaneously gave activated MMP-13.
as §1, §2, §3, §4, §5, §6

[4] = target: T4, MMP-9 (Homo sapiens, UniProt P14780); assay: Assay for inhibitory activities on MMPs (fluorogenic peptide substrate), MMP-9; format: biochemical; conditions: MMP-9 from HT1080 cells, activated by TPCK-Trypsin; substrate MOCAc-Pro-Leu-Gly-Leu-A2Pr(DNP)-Ala-Arg-NH2
T4 construct: endogenous in cells; host or cells: HT1080 human fibrosarcoma cells, TPA-stimulated; enzyme purified from conditioned medium
From the text: MMP-9 was isolated and purified by procedures described in as follows: Yasunori Okada, Yukio Gonoji, Katsumi Naka, Katsuro Tomita, Isao Nakanishi, Kazushi Iwata, Kyoko Yamashita, and Taro Hayakawa: Matrix metalloproteinase 9 (92-kDa gelatinase/type IV collagenase) from HT1080 human fibrosarcoma cells. Purification and activation of the precursor and enzymic properties J. Biol. Chem., 1992, 267 21712-21719, in combination with others: 1)Yasunori Okada, Tatsuhisa Morodomi, Jan J, Enghild, ko Suzuki, Atsushi Yasui, Isao Nakanishi, Guy Salvesen and Hideaki Nagase: Matrix metalloproteinase 2 from human rheumatoid synovial fibroblasts. Purification and activation of the precursor and enzymic properties. Eur. J. Biochem. 1990, 194 721-730; 2)Robin V Ward, Rosalind M Hembry, John J Reynolds and Gillian Murphy: The purification of tissue inhibitor of metalloproteinase-2 from its 72 kDa progelatinase complex. Biochem. J. 1991 278 179-187. In detail, human fibrosarcoma ATCC HT1080 cell line was cultured to confluent in Dulbecco's Modified Medium (DMEM) containing 10% fetal-calf serum at 37° C. for 48 hours. Subsequently, the medium of confluent culture was changed to serum-free DMEM medium. To obtain MMP-9, Phorbol-12-myristate-13-acetate (TPA) must be added to this serum-free DMEM medium at a concentration of 50 ng/ml. The TPA treated medium was centrifuged at 3000 rpm for 15 min and the supernatant was concentrated to 450 ml by a Toyo-Roshi UP-20 apparatus with an ultrafiltration membrane. Then, proMMP-9 in this concentrated solution was purified by using columns of Gelatin-Sepharose and Concanavalin A-Sepharose. The pool containing proMMP-9 was dialyzed, concentrated (Toyo-Roshi UP-20) and applied to columns of Sephacryl S-200 and Green A matrix for the separation from TIMPs. The obtained proMMP-9 fraction was activated by TPCK-Trypsin (Final conc. 3 μg/501 μl React Mix.).
as §1, §2, §3, §4, §5, §6

[5] = target: T5, MMP-12 (Homo sapiens, UniProt P39900); assay: Assay for inhibitory activities on MMPs (fluorogenic peptide substrate), MMP-12; format: biochemical; conditions: catalytic domain 100Phe-263Gly; substrate MOCAc-Pro-Leu-Gly-Leu-A2Pr(DNP)-Ala-Arg-NH2
T5 construct: catalytic domain(^100Phe˜^263Gly) was amplified with RT-PCR; His-tag; enterokinase digestion-site; made in house; host or cells: Escherichia coli
Protocol: as §7, with “MMP-12,” for “MMP-13, mRNA was prepared from carcinoma cell SW1353 derived from human cartilage stimulate by IL-1, TNF and”, “domain(^100Phe˜^263Gly)” for “domain (^104Tyr˜^267Gly)”, “RT-PCR from Human Placenta Total RNA.” for “RT-PCR.”, “MMP-12” for “MMP-13”, “dialysis” for “dialyze”, “MMP-12.” for “MMP-13.”
as §1, §2, §3, §4, §5, §6

T5 sequence (P39900 100-263): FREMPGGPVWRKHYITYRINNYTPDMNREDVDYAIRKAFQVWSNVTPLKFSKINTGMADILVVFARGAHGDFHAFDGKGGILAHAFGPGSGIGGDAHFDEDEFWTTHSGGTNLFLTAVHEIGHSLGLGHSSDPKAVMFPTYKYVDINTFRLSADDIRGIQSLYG
T4 sequence (P14780 107-707 limits assumed): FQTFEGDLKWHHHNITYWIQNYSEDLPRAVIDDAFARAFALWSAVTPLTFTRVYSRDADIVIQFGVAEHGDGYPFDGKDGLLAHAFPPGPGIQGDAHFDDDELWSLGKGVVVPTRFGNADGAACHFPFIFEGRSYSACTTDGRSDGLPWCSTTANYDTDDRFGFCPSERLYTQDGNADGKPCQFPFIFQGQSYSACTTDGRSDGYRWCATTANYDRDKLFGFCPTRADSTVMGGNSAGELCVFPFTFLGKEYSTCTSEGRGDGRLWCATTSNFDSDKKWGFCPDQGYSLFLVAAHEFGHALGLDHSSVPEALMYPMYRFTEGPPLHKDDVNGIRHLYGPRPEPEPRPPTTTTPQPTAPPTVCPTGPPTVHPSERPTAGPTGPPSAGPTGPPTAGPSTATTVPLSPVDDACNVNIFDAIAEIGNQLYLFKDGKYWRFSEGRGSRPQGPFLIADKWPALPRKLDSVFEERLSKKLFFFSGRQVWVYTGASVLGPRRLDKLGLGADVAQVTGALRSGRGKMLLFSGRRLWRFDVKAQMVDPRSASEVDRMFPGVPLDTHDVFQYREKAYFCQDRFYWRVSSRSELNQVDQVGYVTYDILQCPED
T1 sequence (P22894 99-262): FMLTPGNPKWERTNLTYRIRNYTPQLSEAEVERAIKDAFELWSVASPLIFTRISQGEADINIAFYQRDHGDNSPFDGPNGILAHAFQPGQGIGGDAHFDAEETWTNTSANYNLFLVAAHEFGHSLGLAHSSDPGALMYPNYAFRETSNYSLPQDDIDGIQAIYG

IC50 [1]	melting point	IC50 [2]	IC50 [3]	IC50 [4]	IC50 [5]	Structure (SMILES)
28.2 nM	222 to 223 °C	1.29 nM	2.96 nM	43.8 nM	3.55 nM	COc1ccc(-c2cnc(-c3ccc(S(=O)(=O)N[C@H](Cc4ccccc4)C(=O)O)cc3)s2)cc1 [Compound B-1]
15.1 nM		1.83 nM	14.5 nM	13.8 nM	2.92 nM	CC(C)[C@@H](NS(=O)(=O)c1ccc(-c2ncc(-c3ccccc3)s2)cc1)C(=O)O [Compound B-2]
66 nM		0.276 nM	2.66 nM	4.24 nM	0.761 nM	O=C(O)[C@@H](Cc1c[nH]c2ccccc12)NS(=O)(=O)c1ccc(-c2ncc(-c3ccc(Cl)cc3)s2)cc1 [Compound B-51]
72.8 nM		2.56 nM	11 nM	19.5 nM	2.49 nM	O=C(O)[C@H](Cc1ccccc1)NS(=O)(=O)c1ccc(-c2ncc(-c3ccc(Cl)cc3)s2)cc1 [Compound B-14]
92.3 nM		1.2 nM	5.08 nM	11.8 nM	1.41 nM	O=C(O)[C@@H](Cc1ccccc1)NS(=O)(=O)c1ccc(-c2ncc(-c3ccc(Cl)cc3)s2)cc1 [Compound B-13]

Further lines, the compound ahead of its results:

Structure (SMILES)	IC50 [1]	melting point	IC50 [2]	IC50 [3]	IC50 [4]	IC50 [5]
O=C(O)[C@@H](Cc1ccccc1)NS(=O)(=O)c1ccc(-c2ncc(-c3ccc4ccccc4c3)o2)cc1 [Compound A-1]	230 nM	243 to 245 °C	9.31 nM	15 nM	212 nM	1.88 nM
O=C(O)[C@@H](Cc1ccccc1)NS(=O)(=O)c1ccc(-c2ncc(-c3ccc(F)cc3)o2)cc1 [Compound A-19]	113 nM		14.4 nM	113 nM	247 nM	7.71 nM
C[C@@H](NS(=O)(=O)c1ccc(-c2ncc(-c3ccc(Br)cc3)o2)cc1)C(=O)O [Compound A-10]	97.4 nM		5.46 nM	59.2 nM	135 nM	2.42 nM
CC(C)[C@@H](NS(=O)(=O)c1ccc(-c2ncc(-c3ccc(F)cc3)o2)cc1)C(=O)O [Compound A-25]	75.9 nM		12.2 nM	140 nM	179 nM	7.48 nM
COc1ccc(-c2cnc(-c3ccc(S(=O)(=O)N[C@@H](C)C(=O)O)cc3)o2)cc1 [Compound A-9]	266 nM		287 nM	433 nM	9320 nM	27.3 nM
COc1ccc(-c2cnc(-c3ccc(S(=O)(=O)N[C@H](CC(C)C)C(=O)O)cc3)o2)cc1 [Compound A-28]	26.1 nM		10.9 nM	44.8 nM	483 nM	5.05 nM
